ChEMBL document CHEMBL1150962, “Activity-guided isolation of steroidal alkaloid antiestrogen-binding site inhibitors from Pachysandra procumbens” (J Nat Prod, 1998)
Active and inactive are the calls of the source. The rule behind the calls is not given here.

How the values were obtained:
[1] = biological target: Anti-estrogen binding site (Rattus norvegicus); test: Displacement of [3H]tamoxifen from antiestrogen binding site in Sprague-Dawley rat liver by liquid scintillation counting
Ishikawa [2] = test: Potentiation of tamoxifen-induced antiestrogenic activity in human Ishikawa cells assessed as decrease in tamoxifen IC50 at 2 ug/ml after 4 days by ELISA; type: functional, cell-based
Ishikawa [3] = test: Antiestrogenic activity in human Ishikawa cells assessed as inhibition of estrogen-induced alkaline phosphatase activity after 4 days by ELISA; details: 96 h
Ishikawa [4] = test: Potentiation of tamoxifen-induced antiestrogenic activity in human Ishikawa cells assessed as decrease in tamoxifen IC50 at 1 ug/ml after 4 days by ELISA; type: functional, cell-based

CC(C)[C@@H]1CN(C2=CC[C@@]3(C)[C@@H](CC[C@@H]4[C@@H]3CC[C@]3(C)[C@@H]([C@H](C)N(C)C)[C@@H](O)C[C@@H]43)C2=O)C1=O
IC50 [1]: 3500 nM | Activity (Ishikawa [2]): Active

C[C@@H]([C@H]1CC[C@H]2[C@@H]3CC[C@H]4C[C@]5(CC[C@]4(C)[C@H]3CC[C@]12C)c1ccccc1C(=O)N5C)N(C)C
IC50 [1]: 7400 nM | Activity (Ishikawa [2]): Active

C[C@@H]([C@H]1CC[C@H]2[C@@H]3CC[C@H]4C(=O)C(NC(=O)c5ccccc5)=CC[C@]4(C)[C@H]3CC[C@]12C)N(C)C
IC50 [1]: 8000 nM | Activity (Ishikawa [2]): Active

CC/C(=C(\c1ccccc1)c1ccc(OCCN(C)C)cc1)c1ccccc1 [TAMOXIFEN]
IC50 (Ishikawa [3]): 420 nM

CC(C)=CC(=O)N(C)[C@@H]1CC[C@@]2(C)[C@@H](CC[C@@H]3[C@@H]2CC[C@]2(C)[C@@H]([C@H](C)N(C)C)CC[C@@H]32)C1 [(+)-PACHYSAMINE B]
Activity (Ishikawa [4]): Active | IC50 [1]: 600 nM

CC(=O)O[C@H]1[C@@H](N2C(=O)c3ccccc3C2=O)[C@H](O)C[C@]2(C)[C@H]3CC[C@]4(C)[C@@H]([C@H](C)N(C)C)CC[C@H]4[C@@H]3CC[C@@H]12
Activity (Ishikawa [2]): Active

CO[C@H]1CC[C@@]2(C)C(=CC[C@H]3[C@@H]4CC[C@H]([C@H](C)N(C)C)[C@@]4(C)CC[C@@H]32)C1
IC50 [1]: 400 nM | Activity (Ishikawa [2]): Active

CC(C)[C@@H]1CN(C2=CC[C@@]3(C)[C@@H](CC[C@@H]4[C@@H]3CC[C@]3(C)[C@@H]([C@H](C)N(C)C)CC[C@@H]43)C2=O)C1=O
Activity (Ishikawa [2]): Active

CC(=O)O[C@H]1C(NC(=O)c2ccccc2)=CC[C@]2(C)[C@H]3CC[C@]4(C)[C@@H]([C@H](C)N(C)C)CC[C@H]4[C@@H]3CC[C@@H]12
Activity (Ishikawa [4]): Active | IC50 [1]: 600 nM

C[C@@H]([C@H]1CC[C@H]2[C@@H]3CC[C@H]4C[C@@H](NC(=O)c5ccccc5)CC[C@]4(C)[C@H]3CC[C@]12C)N(C)C [EPIPACHYSAMINE D]
IC50 [1]: > 20000 nM | Activity (Ishikawa [2]): Active
